# In ChEMBL document CHEMBL1129789, “Dopamine D3 and D4 receptor antagonists: synthesis and structure--activity relationships of (S)-(+)-N-(1-Benzyl-3-pyrrolidinyl)-5-chloro-4- [(cyclopropylcarbonyl) amino]-2-methoxybenzamide (YM-43611) and related compounds” (J Med Chem, 1996):
# Assays:
# [1] = molecular target: T1, Adrenergic receptor alpha-1 (Rattus norvegicus, UniProt P15823+P23944+P43140); experiment: Compound was tested for the binding affinity against rat cortical Alpha-1 adrenergic receptor by radioligand [3H]prazosin binding assay.; format: protein assay
# T1 sequence (P15823 whole entry): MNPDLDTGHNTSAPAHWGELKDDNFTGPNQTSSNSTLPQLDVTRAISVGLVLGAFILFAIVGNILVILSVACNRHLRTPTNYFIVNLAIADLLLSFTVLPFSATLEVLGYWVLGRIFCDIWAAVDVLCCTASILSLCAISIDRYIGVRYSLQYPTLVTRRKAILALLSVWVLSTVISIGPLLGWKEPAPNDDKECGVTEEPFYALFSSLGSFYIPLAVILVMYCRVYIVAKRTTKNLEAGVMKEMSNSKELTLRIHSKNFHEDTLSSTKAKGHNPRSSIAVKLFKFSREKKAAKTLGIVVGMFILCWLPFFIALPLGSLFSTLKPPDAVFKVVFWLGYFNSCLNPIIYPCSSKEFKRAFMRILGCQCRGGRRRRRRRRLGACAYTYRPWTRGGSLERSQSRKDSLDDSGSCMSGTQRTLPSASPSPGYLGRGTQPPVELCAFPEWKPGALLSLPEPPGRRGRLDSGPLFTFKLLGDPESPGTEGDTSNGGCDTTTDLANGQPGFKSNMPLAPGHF
# T1 sequence (P23944 whole entry): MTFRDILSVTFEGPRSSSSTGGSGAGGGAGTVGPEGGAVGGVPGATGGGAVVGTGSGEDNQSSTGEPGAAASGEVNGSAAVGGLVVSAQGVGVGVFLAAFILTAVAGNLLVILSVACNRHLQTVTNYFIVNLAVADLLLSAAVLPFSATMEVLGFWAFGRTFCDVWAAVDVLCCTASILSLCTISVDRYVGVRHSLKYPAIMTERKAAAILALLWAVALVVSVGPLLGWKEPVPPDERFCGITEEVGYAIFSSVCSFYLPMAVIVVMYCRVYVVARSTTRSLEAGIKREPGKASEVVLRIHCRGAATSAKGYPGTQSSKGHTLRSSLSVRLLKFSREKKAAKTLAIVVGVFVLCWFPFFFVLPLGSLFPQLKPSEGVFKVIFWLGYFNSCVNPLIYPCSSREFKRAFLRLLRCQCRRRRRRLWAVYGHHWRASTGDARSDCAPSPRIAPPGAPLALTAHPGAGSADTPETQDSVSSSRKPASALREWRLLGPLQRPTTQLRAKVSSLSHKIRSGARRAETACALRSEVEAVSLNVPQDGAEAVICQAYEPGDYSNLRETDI
# T1 sequence (P43140 whole entry): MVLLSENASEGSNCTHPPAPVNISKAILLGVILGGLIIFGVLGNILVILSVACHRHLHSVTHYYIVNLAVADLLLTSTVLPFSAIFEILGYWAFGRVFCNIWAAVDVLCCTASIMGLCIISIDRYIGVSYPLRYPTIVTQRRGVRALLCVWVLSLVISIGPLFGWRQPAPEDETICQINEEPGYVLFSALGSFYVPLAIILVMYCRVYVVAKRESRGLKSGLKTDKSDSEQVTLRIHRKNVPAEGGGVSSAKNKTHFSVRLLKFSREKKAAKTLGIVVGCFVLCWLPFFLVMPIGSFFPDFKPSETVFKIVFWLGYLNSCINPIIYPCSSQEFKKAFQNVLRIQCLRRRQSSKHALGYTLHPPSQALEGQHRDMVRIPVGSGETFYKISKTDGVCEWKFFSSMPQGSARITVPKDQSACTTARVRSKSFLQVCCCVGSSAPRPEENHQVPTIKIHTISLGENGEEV
# [2] = molecular target: T2, Adrenergic receptor alpha-2 (Rattus norvegicus, UniProt P22086+P19328+P22909); experiment: Compound was tested for the Binding affinity against rat cortical Alpha-2 adrenergic receptor by Radio ligand ([3H]-Rx-821002) binding assay; format: protein assay
# T2 sequence (P22086 whole entry): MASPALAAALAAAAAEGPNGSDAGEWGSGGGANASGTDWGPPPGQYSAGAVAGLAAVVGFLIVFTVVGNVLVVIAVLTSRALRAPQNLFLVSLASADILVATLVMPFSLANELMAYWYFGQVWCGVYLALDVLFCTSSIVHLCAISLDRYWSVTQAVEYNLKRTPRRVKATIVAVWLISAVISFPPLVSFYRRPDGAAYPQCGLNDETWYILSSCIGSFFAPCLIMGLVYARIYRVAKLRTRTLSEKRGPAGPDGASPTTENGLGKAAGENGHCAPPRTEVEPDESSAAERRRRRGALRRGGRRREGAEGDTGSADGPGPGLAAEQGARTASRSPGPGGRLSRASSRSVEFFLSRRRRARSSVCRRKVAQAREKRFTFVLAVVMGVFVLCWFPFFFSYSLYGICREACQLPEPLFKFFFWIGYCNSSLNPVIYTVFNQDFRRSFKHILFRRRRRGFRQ
# T2 sequence (P19328 whole entry): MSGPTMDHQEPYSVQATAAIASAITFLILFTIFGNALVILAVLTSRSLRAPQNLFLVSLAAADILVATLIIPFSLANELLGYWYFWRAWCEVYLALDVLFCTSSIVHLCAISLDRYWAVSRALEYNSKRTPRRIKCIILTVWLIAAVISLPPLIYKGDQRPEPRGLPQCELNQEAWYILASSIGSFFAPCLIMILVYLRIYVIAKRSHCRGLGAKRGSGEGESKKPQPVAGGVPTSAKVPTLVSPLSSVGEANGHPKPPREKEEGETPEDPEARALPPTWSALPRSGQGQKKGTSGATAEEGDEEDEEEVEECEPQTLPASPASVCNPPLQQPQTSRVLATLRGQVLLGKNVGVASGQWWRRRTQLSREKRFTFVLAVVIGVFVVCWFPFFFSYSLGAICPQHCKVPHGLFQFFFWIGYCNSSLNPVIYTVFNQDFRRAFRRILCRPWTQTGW
# T2 sequence (P22909 whole entry): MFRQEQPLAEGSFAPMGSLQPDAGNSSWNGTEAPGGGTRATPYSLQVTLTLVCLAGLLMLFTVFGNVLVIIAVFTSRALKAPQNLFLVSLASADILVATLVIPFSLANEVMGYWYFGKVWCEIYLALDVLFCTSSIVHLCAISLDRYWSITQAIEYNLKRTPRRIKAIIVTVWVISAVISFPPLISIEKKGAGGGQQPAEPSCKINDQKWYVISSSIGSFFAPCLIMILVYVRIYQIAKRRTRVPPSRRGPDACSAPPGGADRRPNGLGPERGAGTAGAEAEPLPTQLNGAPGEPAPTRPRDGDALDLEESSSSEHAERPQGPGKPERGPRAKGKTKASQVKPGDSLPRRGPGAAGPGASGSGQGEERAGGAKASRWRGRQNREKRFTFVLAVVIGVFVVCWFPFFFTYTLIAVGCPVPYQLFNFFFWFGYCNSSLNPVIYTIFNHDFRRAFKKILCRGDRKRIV
smiles,measurement,setting,value
COc1cc(NC(=O)C2CC2)c(Cl)cc1C(=O)N[C@H]1CCN(Cc2ccccc2)C1,Ki,[1],5.3 µM
same,Ki,[2],4.3 µM
